Earlier results as cited in US20240156825A1, “USE OF SELECTIVE VEGFR2 AND FGFR1 INHIBITORS” (Fountain Therapeutics Inc., priority 2022, published 2024).
Read-outs that look alike come from different tables or passages of the source.

Experiments:
any gene target = conditions: next lowest IC50 value to any gene target, read-out: Min IC50_μM, cited from earlier work
VEGFR2 = VEGFR2 (Homo sapiens, UniProt P35968); conditions: reported IC50 to VEGFR2, read-out: VEGFR2 IC50_μM, cited from earlier work
VEGFR2, sequence (P35968 20-1356, species assumed): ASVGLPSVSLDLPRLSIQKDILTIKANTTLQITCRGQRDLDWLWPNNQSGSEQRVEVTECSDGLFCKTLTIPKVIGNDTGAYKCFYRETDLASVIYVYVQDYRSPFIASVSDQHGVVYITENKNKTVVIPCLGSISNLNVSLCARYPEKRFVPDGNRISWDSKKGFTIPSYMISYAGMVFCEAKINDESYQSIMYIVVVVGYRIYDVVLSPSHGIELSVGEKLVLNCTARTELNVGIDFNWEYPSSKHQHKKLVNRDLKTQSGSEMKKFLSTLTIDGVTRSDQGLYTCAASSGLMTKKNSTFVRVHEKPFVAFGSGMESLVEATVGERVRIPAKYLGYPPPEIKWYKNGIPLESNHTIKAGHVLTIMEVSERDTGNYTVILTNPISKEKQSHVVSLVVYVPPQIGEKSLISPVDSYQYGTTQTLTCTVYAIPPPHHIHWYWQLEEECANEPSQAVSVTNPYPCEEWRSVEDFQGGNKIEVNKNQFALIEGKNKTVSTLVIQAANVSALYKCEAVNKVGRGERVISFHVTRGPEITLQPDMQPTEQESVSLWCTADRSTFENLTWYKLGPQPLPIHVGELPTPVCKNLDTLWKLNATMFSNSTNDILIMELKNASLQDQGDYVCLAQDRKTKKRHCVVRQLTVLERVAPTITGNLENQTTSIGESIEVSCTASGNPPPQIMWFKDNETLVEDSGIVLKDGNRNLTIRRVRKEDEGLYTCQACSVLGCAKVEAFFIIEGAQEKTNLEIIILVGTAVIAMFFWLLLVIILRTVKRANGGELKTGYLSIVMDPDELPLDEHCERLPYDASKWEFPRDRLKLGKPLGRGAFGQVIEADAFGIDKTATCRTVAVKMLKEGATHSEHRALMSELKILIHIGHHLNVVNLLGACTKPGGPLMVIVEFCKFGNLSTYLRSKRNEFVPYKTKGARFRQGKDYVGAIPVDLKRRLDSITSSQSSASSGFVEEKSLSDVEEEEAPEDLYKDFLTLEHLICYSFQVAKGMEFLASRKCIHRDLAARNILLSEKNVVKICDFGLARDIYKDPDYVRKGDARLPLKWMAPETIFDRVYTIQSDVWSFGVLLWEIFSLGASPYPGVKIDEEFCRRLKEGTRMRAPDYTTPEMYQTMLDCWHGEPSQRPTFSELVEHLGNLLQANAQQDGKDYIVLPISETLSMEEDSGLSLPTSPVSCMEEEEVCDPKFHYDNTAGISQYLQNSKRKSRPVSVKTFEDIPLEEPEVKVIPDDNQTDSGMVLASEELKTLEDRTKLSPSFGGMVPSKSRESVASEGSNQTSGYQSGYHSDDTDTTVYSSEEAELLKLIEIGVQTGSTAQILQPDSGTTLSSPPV

[1] = Table 3, selective inhibitors of VEGFR2

SMILES | IC50 (any gene target) [nM] | IC50 (VEGFR2) [nM] | IC50 (any gene target; Table 3) [nM] | IC50 (VEGFR2; [1]) [nM]
CCNC(=O)Nc1ccc(Oc2ncccc2-c2ccnc(NC)n2)c2ccccc12 [compound 46890315] | 130 | 48 |  | 
COc1cc(C2=C(c3cn(COC(C)C)c4ccccc34)CNC2=O)cc(OC)c1OC [compound 24894996] | 5300 | 5200 |  | 
Cc1c2ccc(N(C)c3ccnc(Nc4cccc(S(N)(=O)=O)c4)n3)cc2nn1C [compound 24949700] | 1400 | 5.6 |  | 
COc1cc2c(Nc3cccc(Cl)c3F)ncnc2cc1OCC1CN(C(N)=NC#N)CCCO1 (stereo not drawn) [compound 134142438] |  |  | 50 | 50
COc1cc2c(Nc3ccc(Cl)c(Cl)c3C)ncnc2cc1OCC1CN(C)CCO1 (stereo not drawn) [compound 57802584] |  |  | 50 | 50
COc1cc2c(Nc3ccc(Cl)cc3F)ncnc2cc1OCCN(C)c1ccncc1 [compound 5329026] | 100 | 6 |  | 
COc1cc2c(Nc3cc(Cl)c(Br)cc3F)ncnc2cc1OC[C@@H]1CN2CCC[C@H]2CO1 [compound 66839071] |  |  | 50 | 50
COc1cc2c(Nc3ccc(Cl)cc3F)ncnc2cc1OCCN1CCN(C)CC1 [compound 4913175] | 100 | 30 |  | 
C[C@@H](Nc1ncnc2[nH]c(-c3ccc(C(=O)NO)cc3)cc12)c1ccc(F)cc1 [compound 24900772] |  |  | 100 | 100
COc1cc2c(Nc3cc(Cl)c(Br)cc3F)ncnc2cc1OC[C@@H]1CN2CCOC[C@H]2CO1 [compound 66838467] |  |  | 50 | 50
COc1cc2c(Nc3cc(Cl)c(Cl)cc3F)ncnc2cc1OCC1CN(C)C(C)(C)CO1 (stereo not drawn) [compound 57802853] |  |  | 50 | 50
COc1cc2c(Nc3ccc(Cl)c(Cl)c3)ncnc2cc1OCc1csc(C2CCCN(C)C2)n1 (stereo not drawn) [compound 57802607] |  |  | 50 | 50
COc1cc2c(Nc3ccc(Cl)c(Cl)c3F)ncnc2cc1OC[C@@H]1CN(C)CC(=O)N1 [compound 57802639] |  |  | 50 | 50
COc1cc2c(Nc3ccc(Cl)c(Cl)c3Cl)ncnc2cc1OCC1CN(C)CCO1 (stereo not drawn) [compound 57802801] | 50 | 50 |  | 
COc1cc2c(Nc3ccc(Cl)c(Cl)c3)ncnc2cc1OCC1CN(S(=O)(=O)CCCCl)CCO1 (stereo not drawn) [compound 57802656] | 50 | 50 |  | 
COc1ccc(Nc2ncc3c(n2)-c2ccccc2NC(=O)C3)cc1O [compound 16730105] | 640 | 73 |  | 
COc1ccccc1/C(C)=C/c1coc2nc(N)nc(N)c12 [compound 6477203] | 12800 | 10300 |  | 
COc1cc2c(Nc3ccc(Cl)c(Cl)c3F)ncnc2cc1OC[C@H]1CN2CCOC[C@H]2CO1 [compound 10029284] |  |  | 50 | 50
COc1cc2c(Nc3ccc(Cl)c(Cl)c3)ncnc2cc1OCC1CN(C(C)=O)CCCO1 (stereo not drawn) [compound 57802725] | 50 | 50 |  | 
O=C(NCCc1ccc(O)c(Br)c1)/C(Cc1cc(Br)c(O)c(Oc2ccc(CCNC(=O)/C(Cc3cc(Br)c(O)c(-c4cc(C/C(=N\O)C(=O)NCCc5ccc(O)c(Br)c5)cc(Br)c4O)c3)=N/O)cc2Br)c1)=N/O [compound 71524406] |  |  | 600 | 600
COc1cc2c(Nc3ccc(Cl)c(Cl)c3F)ncnc2cc1OC[C@@H]1CN2CCC[C@@H]2C(=O)N1 [compound 53630924] |  |  | 50 | 50
COc1cc2c(Nc3ccc(Br)cc3F)ncnc2cc1OC[C@H]1CCCN(C)C1 [compound 5329057] | 40 | 10 |  | 
COc1cc2ncnc(Oc3ccc4c(C(=O)NC5CC5)cccc4c3)c2cc1OC [compound 24823093] | 360 | 2.88 |  | 

SMILES | IC50 (any gene target) [nM] | IC50 (VEGFR2) [nM] | IC50 (any gene target; Table 3) [nM] | IC50 (VEGFR2; [1]) [nM]
COc1cc2nccc(Oc3ccc4c(C(N)=O)cccc4c3)c2cc1OC [compound 11474276] | 88 | 0.891 |  | 
COc1cc2c(Nc3ccc(Br)c(Cl)c3Cl)ncnc2cc1OC[C@@H]1CO[C@H]2[C@@H]1OC[C@@H]2OC [compound 66954887] |  |  | 50 | 50
COCCNC(=O)c1cccc2cc(Oc3ccnc4cc(OC)c(C(N)=O)cc34)ccc12 [compound 11224593] | 233 | 22 |  | 
COc1cc2c(Nc3cc(O)c(C)cc3F)ncnc2cc1OCC1CCN(C)CC1 [compound 49860186] | 25 | 7 |  | 
COc1cc2c(Oc3ccc(Nc4ccc(C(C)(C)C)cc4)cc3)ccnc2cc1OCCNCCO [compound 9850161] |  |  | 69 | 69
C[C@@H](Nc1ncnc2[nH]c(-c3ccc(OCCCCC(=O)NO)cc3)cc12)c1ccccc1 [compound 24900507] | 100 | 100 |  | 
COc1cc2c(Nc3cc(Cl)c(Cl)cc3F)ncnc2cc1OC[C@H]1CN2CCOC[C@H]2CO1 [compound 10346203] |  |  | 50 | 50
COc1cc(C2=C(c3cn(COCC[Si](C)(C)C)c4ccccc34)CNC2=O)cc(OC)c1OC [compound 24894886] | 4500 | 3100 |  | 
COc1cc2nccc(Oc3ccc4c(C(=O)NC5CCC5)cccc4c3)c2cc1OC [compound 24824448] | 440 | 1.3 |  | 
O=C(Nc1ccc(Oc2ncnc3sc4c(c23)CCCC4)cc1)Nc1cccc(Br)c1 [compound 122193773] | 17 | 11 |  | 
COc1ccc2c(c1)/C(=C/c1cc3c([nH]1)CCN(C(=O)N1CCN(C)CC1)C3)C(=O)N2 [compound 71714231] |  |  | 6 | 6
C[C@@H](Nc1ncnc2[nH]c(-c3ccc(CN4CCN(CCCCCC(=O)NO)CC4)cc3)cc12)c1ccccc1 [compound 24900442] | 100 | 100 |  | 
COc1cc2c(Nc3ccc(Cl)c(Cl)c3)ncnc2cc1OCC1CN(CCCCCC#N)CCO1 (stereo not drawn) [compound 57802611] |  |  | 50 | 50
C[C@@H](Nc1ncnc2[nH]c(-c3ccc(C(=O)NO)cc3)cc12)c1ccccc1 [compound 24900715] |  |  | 100 | 100
CC(C)(Nc1nc(Nc2ccc3ncsc3c2)[nH]c(=O)n1)c1ccccc1 [compound 135454992] | 550 | 35 |  | 
COc1cc2ncnc(Nc3ccc(Br)cc3)c2cc1OCCCC(=O)NO [compound 127027714] | 545 | 98 |  | 
COc1cc2c(Nc3ccc(Cl)c(Cl)c3)ncnc2cc1OCc1nc(N2CCNCC2)no1 [compound 57802679] | 50 | 50 |  | 
COc1cc2c(Nc3ccc(F)c(Cl)c3F)ncnc2cc1OCC1CN(C)CCO1 (stereo not drawn) [compound 57802680] | 50 | 50 |  | 
O=C(CCCCCCNCc1cc(Oc2ccc(NC(=O)Nc3ccc(Cl)c(C(F)(F)F)c3)cc2)ccn1)NO [compound 25072217] | 100 | 100 |  | 
Cc1ccc(NC(=O)c2ccc(C(C)(C)C)s2)cc1Nc1nc2ccccc2n1-c1cc(N)ncn1 [compound 15949617] | 4 | 4 |  | 
COc1cc2ncnc(Nc3cccc(Cl)c3)c2cc1OCCC(=O)NO [compound 122195525] | 645 | 476 |  | 
COc1cc2c(Nc3ccc(Cl)c(Cl)c3)ncnc2cc1OCc1csc(C2CCCCN2)n1 (stereo not drawn) [compound 57802866] |  |  | 50 | 50
